# Assay results from ChEMBL document CHEMBL5241112, “Insights into the recent progress in the medicinal chemistry of pyranopyrimidine analogs” (RSC Med Chem, 2022).
# Legend:
# Pseudomonas aeruginosa [1] = test: Antimicrobial activity against Pseudomonas aeruginosa assessed as diameter of inhibition zone at 1 mg/ml incubated for 48 hrs by agar disk diffusion method; assay type: functional; settings: read-out: DIZ
# Penicillium chrysogenum [2] = test: Antifungal activity against Penicillium chrysogenum assessed as diameter of inhibition zone at 1 mg/ml incubated for 72 to 91 hrs by agar disk diffusion method; assay type: functional; settings: time 72-91 hrs, read-out: DIZ
# Klebsiella pneumoniae [3] = test: Antimicrobial activity against Klebsiella pneumoniae assessed as diameter of inhibition zone at 1 mg/ml incubated for 48 hrs by agar disk diffusion method; assay type: functional; settings: read-out: DIZ
# Escherichia coli [4] = test: Antimicrobial activity against Escherichia coli assessed as diameter of inhibition zone at 1 mg/ml incubated for 48 hrs by agar disk diffusion method; assay type: functional; settings: read-out: DIZ
# Bacillus cereus = test: Antimicrobial activity against Bacillus cereus assessed as diameter of inhibition zone at 1 mg/ml incubated for 48 hrs by agar disk diffusion method; assay type: functional; settings: read-out: DIZ
# Staphylococcus aureus [5] = test: Antibacterial activity against Staphylococcus aureus MTCC 96 assessed as bacterial growth inhibition incubated for 24 hrs by broth microdilution method; assay type: functional
# Staphylococcus aureus [6] = test: Antibacterial activity against Staphylococcus aureus MLS-16 MTCC 2940 assessed as bacterial growth inhibition incubated for 24 hrs by broth microdilution method; assay type: functional
# [7] = target: T1, Free fatty acid receptor 3 (Homo sapiens, UniProt O14843); test: Agonist activity at FFA3 (unknown origin) expressed in human Flp-In-293 cells assessed as inhibition of forskolin-stimulated cAMP accumulation incubated for 30 mins by Lance cAMP assay; assay type: cell-based
# T1 sequence (O14843 whole entry): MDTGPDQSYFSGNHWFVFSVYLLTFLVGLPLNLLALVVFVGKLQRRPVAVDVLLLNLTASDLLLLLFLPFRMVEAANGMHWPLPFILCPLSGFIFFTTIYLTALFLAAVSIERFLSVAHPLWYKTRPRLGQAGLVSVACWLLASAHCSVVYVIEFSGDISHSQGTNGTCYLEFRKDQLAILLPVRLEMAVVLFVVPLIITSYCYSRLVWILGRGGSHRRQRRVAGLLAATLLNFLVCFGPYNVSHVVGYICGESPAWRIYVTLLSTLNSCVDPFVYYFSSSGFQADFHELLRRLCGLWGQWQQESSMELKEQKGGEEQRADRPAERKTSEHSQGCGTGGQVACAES
# [8] = target: Hydroxycarboxylic acid receptor 2 (Homo sapiens, UniProt Q8TDS4); test: Agonist activity at human HCA2 expressed in human Flp-In-293 cells assessed as inhibition of forskolin-stimulated cAMP accumulation incubated for 30 mins by Lance cAMP assay; assay type: cell-based
# Hydroxycarboxylic acid receptor 2, sequence (Q8TDS4 whole entry): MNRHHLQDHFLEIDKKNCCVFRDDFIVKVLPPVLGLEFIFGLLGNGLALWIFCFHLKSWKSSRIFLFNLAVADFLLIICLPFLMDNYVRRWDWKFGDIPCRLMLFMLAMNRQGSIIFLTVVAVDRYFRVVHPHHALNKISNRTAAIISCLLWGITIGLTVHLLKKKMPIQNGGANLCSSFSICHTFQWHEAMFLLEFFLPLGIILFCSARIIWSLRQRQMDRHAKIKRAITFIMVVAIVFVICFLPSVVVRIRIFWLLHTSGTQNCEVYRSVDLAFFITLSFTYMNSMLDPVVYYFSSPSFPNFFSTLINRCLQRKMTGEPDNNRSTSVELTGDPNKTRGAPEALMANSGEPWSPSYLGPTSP
# Escherichia coli [9] = test: Antibacterial activity against Escherichia coli assessed as bacterial growth inhibition by broth microdilution method; assay type: functional
# Klebsiella pneumoniae [10] = test: Antibacterial activity against Klebsiella pneumoniae assessed as bacterial growth inhibition by broth microdilution method; assay type: functional
# Pseudomonas aeruginosa [11] = test: Antibacterial activity against Pseudomonas aeruginosa assessed as bacterial growth inhibition by broth microdilution method; assay type: functional
# Staphylococcus aureus [12] = test: Antibacterial activity against Staphylococcus aureus assessed as bacterial growth inhibition by broth microdilution method; assay type: functional
# Candida albicans = test: Antifungal activity against Candida albicans assessed as fungal growth inhibition by broth microdilution method; assay type: functional
# Aspergillus flavus = test: Antifungal activity against Aspergillus flavus assessed as fungal growth inhibition by broth microdilution method; assay type: functional
# [13] = tested on: Mycobacterium tuberculosis; test: Antitubercular activity against Mycobacterium tuberculosis H37Rv assessed as bacterial growth inhibition at 250 ug/ml; assay type: functional
# [14] = tested on: Mycobacterium tuberculosis; test: Antitubercular activity against Mycobacterium tuberculosis H37Rv assessed as bacterial growth inhibition at 100 ug/ml; assay type: functional
# Staphylococcus aureus [15] = test: Antimicrobial activity against Staphylococcus aureus assessed as diameter of inhibition zone at 1 mg/ml incubated for 48 hrs by agar disk diffusion method; assay type: functional; settings: read-out: DIZ
# Aspergillus niger = test: Antifungal activity against Aspergillus niger assessed as diameter of inhibition zone at 1 mg/ml incubated for 72 to 91 hrs by agar disk diffusion method; assay type: functional; settings: time 72-91 hrs, read-out: DIZ
# Aspergillus ochraceus [16] = test: Antifungal activity against Aspergillus ochraceus AUCC-230 assessed as diameter of inhibition zone incubated for 24 hrs by disc diffusion method; assay type: functional
# Aspergillus ochraceus [17] = test: Antifungal activity against Aspergillus ochraceus assessed as diameter of inhibition zone by disc diffusion method; assay type: functional
# Penicillium chrysogenum [18] = test: Antifungal activity against Penicillium chrysogenum assessed as diameter of inhibition zone by disc diffusion method; assay type: functional
# Penicillium chrysogenum [19] = test: Antifungal activity against Penicillium chrysogenum AUCC-530 assessed as diameter of inhibition zone incubated for 24 hrs by disc diffusion method; assay type: functional
# A549 = test: Anticancer activity against human A549 cells assessed as reduction in cell viability incubated for 24 hrs by MTT assay; assay type: functional, cell-based; settings: A549, 24 h
compound,measurement,setting,value
COC(=O)C1=C(N)Oc2[nH]c(=S)[nH]c(=O)c2C1c1ccc(Cl)cc1 (configuration not stated),zone of inhibition at 1000 µg/mL,Pseudomonas aeruginosa [1],13 mm
same,zone of inhibition at 1000 µg/mL,Penicillium chrysogenum [2],0 mm
same,zone of inhibition at 1000 µg/mL,Klebsiella pneumoniae [3],3 mm
same,zone of inhibition at 1000 µg/mL,Escherichia coli [4],7 mm
same,zone of inhibition at 1000 µg/mL,Bacillus cereus,10 mm
Cc1cc2c(c(=O)o1)C(c1ccccc1)c1c(Nc3cccc([N+](=O)[O-])c3)ncnc1O2 (configuration not stated),MIC,Staphylococcus aureus [5],7.8 µg/mL
same,MIC,Staphylococcus aureus [6],15.6 µg/mL
CCCCc1cc(=O)oc2[nH]c(=O)[nH]c(=O)c12,EC50,[7],220 nM
O=c1cc(CCCCCl)c2c(=O)[nH]c(=S)[nH]c2o1,EC50,[7],220 nM
same,EC50,[8],51 nM
Cc1cc(=O)oc2[nH]c(=S)[nH]c(=O)c12,EC50,[7],220 nM
same,EC50,[8],51 nM
CCO/C=N/C1=C(C#N)C(c2ccc(Cl)cc2)c2c(n(C)c(=O)n(C)c2=O)O1 (configuration not stated),MIC,Escherichia coli [9],6.25 µg/mL
same,MIC,Klebsiella pneumoniae [10],6.25 µg/mL
same,MIC,Pseudomonas aeruginosa [11],6.25 µg/mL
same,MIC,Staphylococcus aureus [12],6.25 µg/mL
same,MIC,Candida albicans,3.12 µg/mL
same,MIC,Aspergillus flavus,3.12 µg/mL
Cc1cc2c(c(=O)o1)C(c1ccccc1)c1c(Nc3ccccc3)ncnc1O2 (configuration not stated),MIC,Staphylococcus aureus [6],15.6 µg/mL
CCO/C=N/C1=C(C#N)C(c2cc(OC)ccc2OC)c2c(n(C)c(=O)n(C)c2=O)O1 (configuration not stated),MIC,Escherichia coli [9],6.25 µg/mL
same,MIC,Klebsiella pneumoniae [10],6.25 µg/mL
same,MIC,Pseudomonas aeruginosa [11],6.25 µg/mL
same,MIC,Staphylococcus aureus [12],6.25 µg/mL
same,MIC,Candida albicans,3.12 µg/mL
same,MIC,Aspergillus flavus,3.12 µg/mL
CO[C@H]1/C=C/O[C@@]2(C)Oc3c(C)c(O)c4c(O)c(c(/C=N/N5CCN(C)CC5)c(O)c4c3C2=O)NC(=O)/C(C)=C\C=C\[C@H](C)[C@H](O)[C@@H](C)[C@@H](O)[C@@H](C)[C@H](OC(C)=O)[C@@H]1C [RIFAMPIN],inhibition at 250 µg/mL,[13],98%
same,inhibition at 100 µg/mL,[14],98%
COC(=O)C1=C(N)Oc2[nH]c(=S)[nH]c(=O)c2C1c1ccccc1 (configuration not stated),zone of inhibition at 1000 µg/mL,Pseudomonas aeruginosa [1],19 mm
same,zone of inhibition at 1000 µg/mL,Staphylococcus aureus [15],12 mm
same,zone of inhibition at 1000 µg/mL,Klebsiella pneumoniae [3],21 mm
same,zone of inhibition at 1000 µg/mL,Escherichia coli [4],17 mm
same,zone of inhibition at 1000 µg/mL,Aspergillus niger,12 mm
same,zone of inhibition at 1000 µg/mL,Bacillus cereus,18 mm
COC(=O)C1=C(N)Oc2[nH]c(=S)[nH]c(=O)c2C1c1ccccc1Cl (configuration not stated),zone of inhibition at 1000 µg/mL,Pseudomonas aeruginosa [1],4 mm
same,zone of inhibition at 1000 µg/mL,Penicillium chrysogenum [2],0 mm
same,zone of inhibition at 1000 µg/mL,Staphylococcus aureus [15],11 mm
same,zone of inhibition at 1000 µg/mL,Escherichia coli [4],9 mm
same,zone of inhibition at 1000 µg/mL,Aspergillus niger,0 mm
CCO/C=N/C1=C(C#N)C(c2ccccc2F)c2c(n(C)c(=O)n(C)c2=O)O1 (configuration not stated),MIC,Escherichia coli [9],6.25 µg/mL
same,MIC,Klebsiella pneumoniae [10],6.25 µg/mL
same,MIC,Pseudomonas aeruginosa [11],6.25 µg/mL
same,MIC,Staphylococcus aureus [12],6.25 µg/mL
same,MIC,Candida albicans,6.25 µg/mL
same,MIC,Aspergillus flavus,6.25 µg/mL
COC(=O)C1=C(N)Oc2[nH]c(=S)[nH]c(=O)c2C1c1cccc(Cl)c1 (configuration not stated),zone of inhibition at 1000 µg/mL,Pseudomonas aeruginosa [1],9 mm
same,zone of inhibition at 1000 µg/mL,Staphylococcus aureus [15],10 mm
same,zone of inhibition at 1000 µg/mL,Klebsiella pneumoniae [3],11 mm
same,zone of inhibition at 1000 µg/mL,Escherichia coli [4],8 mm
same,zone of inhibition at 1000 µg/mL,Aspergillus niger,12 mm
same,zone of inhibition at 1000 µg/mL,Bacillus cereus,12 mm
OC(Cn1cncn1)(Cn1cncn1)c1ccc(F)cc1F [FLUCONAZOLE],MIC,Candida albicans,1.56 µg/mL
same,MIC,Aspergillus flavus,1.56 µg/mL
NYSTATIN,inhibition zone (IZ),Aspergillus ochraceus [16],22 mm
same,inhibition zone (IZ),Aspergillus ochraceus [17],22 mm
same,inhibition zone (IZ),Penicillium chrysogenum [18],24 mm
same,inhibition zone (IZ),Penicillium chrysogenum [19],24 mm
Cc1cc2c(c(=O)o1)C(c1ccc(F)cc1)c1c(Nc3ccccc3)ncnc1O2 (configuration not stated),MIC,Staphylococcus aureus [5],7.8 µg/mL
CCOC(=O)C1=C(C)Oc2nc(C)n(Cc3cn(-c4ccc(C(C)=O)cc4)nn3)c(=O)c2C1c1ccccc1 (configuration not stated),IC50,A549,6740 nM
COC(=O)C1=C(N)Oc2[nH]c(=S)[nH]c(=O)c2C1c1ccc(C)cc1 (configuration not stated),zone of inhibition at 1000 µg/mL,Pseudomonas aeruginosa [1],21 mm
same,zone of inhibition at 1000 µg/mL,Penicillium chrysogenum [2],23 mm
same,zone of inhibition at 1000 µg/mL,Staphylococcus aureus [15],15 mm
same,zone of inhibition at 1000 µg/mL,Klebsiella pneumoniae [3],19 mm
same,zone of inhibition at 1000 µg/mL,Escherichia coli [4],16 mm
same,zone of inhibition at 1000 µg/mL,Aspergillus niger,23 mm
same,zone of inhibition at 1000 µg/mL,Bacillus cereus,12 mm
Cc1cc2c(c(=O)o1)C(c1ccc(F)cc1)c1c(Nc3ccc([N+](=O)[O-])cc3)ncnc1O2 (configuration not stated),MIC,Staphylococcus aureus [5],7.8 µg/mL
same,MIC,Staphylococcus aureus [6],15.6 µg/mL
